# Patent US20250143299A1, “METHODS AND COMPOSITIONS FOR CONTROLLING PESTS IN VEGETABLES” (Globachem NV, priority 2022, published 2025)
# Key:
# Format in all cases: in vivo
# Acyrthosiphon pisum = assay: Example 6 pea trial, Acyrthosiphon pisum (pea aphid) control; details: appl. A
# Description: Peas—Acyrthosiphon pisum (Pea Aphid)
# (§1) Trial conducted on peas, variety Navarro, 4 replicates per plot. Each plot was at least 12 m^2, a water volume of 200 L water per ha was used for the application.
# (§2) Insects present at the time of application A: 106 aphids per 20 shoots. The stage of the crop at application A was BBCH 75-77, and at application B, (14 DAA) BBCH 79-81.
# Aphis fabae = assay: Example 5 pea trial, Aphis fabae (black bean aphid) control; details: appl. AB
# Method: Peas—Aphis fabae (Black bean aphid)
# The trial was conducted on peas, variety Batuta, 4 replicates per plot. A water volume of 200 L water/ha was used for each application. Two applications were made, Application A was made at first infestation and Application B was made 14d later. Each plot at least 12 m^2.
# Insects present at the time of application: at App A 197/20 shoots, at App B in untreated: 443/20 shoots.
# Diabrotica speciosa = assay: Example 11 Trial 2 potato, Diabrotica speciosa (DIABSC) control; details: appl. AB
# Description: Potatoes—Diabrotica speciosa (Cucurbit Beetle)—DIABSC A water volume of 400 L water/ha was used for each application. Application A made at the occurrence of the insects; application B was made 7 days later. Each plot was 15 m^2. 5.15 insects per 20 plants were present at the time of application.
# Tuta absoluta = assay: Example 2 tomato trial, Tuta absoluta (tomato leafminer) control; details: appl. AB
# Method: Tomato—Tuta absoluta (Tomato Leafminer)
# Trial conducted in 4 replicates on plots of 25 plants each. Application was made at the occurrence of the insects.
# Insects present at the time of application: at App A 0.3/plot, at App B in untreated: 34/plot
# Efficacy is assessed by checking on the leaves the % of damage caused by the insects.
# Pea = assay: Example 6 phytotoxicity, necrosis/burn (PHYNEC) on pea; set-up: scale not given here; details: 585 g/ha (0.9 L/ha), appl. AB
# Description: as §1, §2
structure (smiles),measurement,setting,value
"CCCCCCCCC(=O)O [PA, pelargonic acid]","COUINS (count of insects), 20 shoots","Acyrthosiphon pisum; 585 g/ha (0.9 L/ha), 3 DAA (1st column)",31.44 % UNCK
same,"COUINS (count of insects), 20 shoots","Acyrthosiphon pisum; 585 g/ha (0.9 L/ha), 3 DAA (2nd column)",31.34 % UNCK
same,"COUINS (count of insects), 20 shoots","Acyrthosiphon pisum; 585 g/ha (0.9 L/ha), 3 DAA (3rd column)",30.01 % UNCK
same,"COUINS (count of insects), 20 shoots","Acyrthosiphon pisum; 975 g/ha (1.5 L/ha), 3 DAA (1st column)",34.03 % UNCK
same,"COUINS (count of insects), 20 shoots","Acyrthosiphon pisum; 975 g/ha (1.5 L/ha), 3 DAA (2nd column)",33.84 % UNCK
same,"COUINS (count of insects), 20 shoots","Acyrthosiphon pisum; 975 g/ha (1.5 L/ha), 3 DAA (3rd column)",35.76 % UNCK
same,"COUINS (count of insects), 20 shoots","Acyrthosiphon pisum; 1300 g/ha (2.0 L/ha), 3 DAA (1st column)",52.54 % UNCK
same,"COUINS (count of insects), 20 shoots","Acyrthosiphon pisum; 1300 g/ha (2.0 L/ha), 3 DAA (2nd column)",52.47 % UNCK
same,"COUINS (count of insects), 20 shoots","Acyrthosiphon pisum; 1300 g/ha (2.0 L/ha), 3 DAA (3rd column)",53.62 % UNCK
same,"COUINS (count of insects), 20 shoots","Acyrthosiphon pisum; 2600 g/ha (4.0 L/ha), 3 DAA (1st column)",65.75 % UNCK
same,"COUINS (count of insects), 20 shoots","Acyrthosiphon pisum; 2600 g/ha (4.0 L/ha), 3 DAA (2nd column)",65.86 % UNCK
same,"COUINS (count of insects), 20 shoots","Acyrthosiphon pisum; 2600 g/ha (4.0 L/ha), 3 DAA (3rd column)",65.31 % UNCK
same,"COUINS (count of insects), 20 shoots","Aphis fabae; 585 g/ha (0.9 L/ha), 3 DAA",7.66 % UNCK
same,"COUINS (count of insects), 20 shoots","Aphis fabae; 585 g/ha (0.9 L/ha), 3 DAB",32.43 % UNCK
same,"COUINS (count of insects), 20 shoots","Aphis fabae; 585 g/ha (0.9 L/ha), 7 DAA",17.73 % UNCK
same,"COUINS (count of insects), 20 shoots","Aphis fabae; 585 g/ha (0.9 L/ha), 7 DAB",33.74 % UNCK
same,"COUINS (count of insects), 20 shoots","Aphis fabae; 975 g/ha (1.5 L/ha), 3 DAA",9.21 % UNCK
same,"COUINS (count of insects), 20 shoots","Aphis fabae; 975 g/ha (1.5 L/ha), 3 DAB",39.08 % UNCK
same,"COUINS (count of insects), 20 shoots","Aphis fabae; 975 g/ha (1.5 L/ha), 7 DAA",22.27 % UNCK
same,"COUINS (count of insects), 20 shoots","Aphis fabae; 975 g/ha (1.5 L/ha), 7 DAB",51.21 % UNCK
same,"COUINS (count of insects), 20 shoots","Aphis fabae; 1300 g/ha (2.0 L/ha), 3 DAA",44.25 % UNCK
same,"COUINS (count of insects), 20 shoots","Aphis fabae; 1300 g/ha (2.0 L/ha), 3 DAB",65.79 % UNCK
same,"COUINS (count of insects), 20 shoots","Aphis fabae; 1300 g/ha (2.0 L/ha), 7 DAA",63.58 % UNCK
same,"COUINS (count of insects), 20 shoots","Aphis fabae; 1300 g/ha (2.0 L/ha), 7 DAB",65.14 % UNCK
same,"COUINS (count of insects), 20 shoots","Aphis fabae; 2600 g/ha (4.0 L/ha), 3 DAA",72.11 % UNCK
same,"COUINS (count of insects), 20 shoots","Aphis fabae; 2600 g/ha (4.0 L/ha), 3 DAB",76.77 % UNCK
same,"COUINS (count of insects), 20 shoots","Aphis fabae; 2600 g/ha (4.0 L/ha), 7 DAA",82.08 % UNCK
same,"COUINS (count of insects), 20 shoots","Aphis fabae; 2600 g/ha (4.0 L/ha), 7 DAB",76.67 % UNCK
same,"# Insects, 20 plants","Diabrotica speciosa; 487.5 g/ha (0.75 L/ha), 3 DAA",38.10b % UNCK
same,"# Insects, 20 plants","Diabrotica speciosa; 487.5 g/ha (0.75 L/ha), 3 DAB",25.00ab % UNCK
same,"# Insects, 20 plants","Diabrotica speciosa; 650 g/ha (1 L/ha), 3 DAA",61.90bc % UNCK
same,"# Insects, 20 plants","Diabrotica speciosa; 650 g/ha (1 L/ha), 3 DAB",25.00ab % UNCK
same,"# Insects, 20 plants","Diabrotica speciosa; 975 g/ha (1.5 L/ha), 7 DAA",100.00d % UNCK
same,"# Insects, 20 plants","Diabrotica speciosa; 975 g/ha (1.5 L/ha), 7 DAB",100.00c % UNCK
same,"# Insects, 20 plants","Diabrotica speciosa; 975 g/ha (1.5 L/ha), 10 DAB",100.00c % UNCK
same,# Damaged leaves,"Tuta absoluta; 1300 g/ha (2 L/ha), 3 DAA",47 % UNCK
same,# Damaged leaves,"Tuta absoluta; 1300 g/ha (2 L/ha), 3 DAB",31 % UNCK
same,# Damaged leaves,"Tuta absoluta; 1300 g/ha (2 L/ha), 7 DAA",68 % UNCK
same,# Damaged leaves,"Tuta absoluta; 1300 g/ha (2 L/ha), 7 DAB",32 % UNCK
same,# Damaged leaves,"Tuta absoluta; 1300 g/ha (2 L/ha), 14 DAA",70 % UNCK
same,# Damaged leaves,"Tuta absoluta; 1950 g/ha (3 L/ha), 3 DAA",51 % UNCK
same,# Damaged leaves,"Tuta absoluta; 1950 g/ha (3 L/ha), 3 DAB",42 % UNCK
same,# Damaged leaves,"Tuta absoluta; 1950 g/ha (3 L/ha), 7 DAA",69 % UNCK
same,# Damaged leaves,"Tuta absoluta; 1950 g/ha (3 L/ha), 7 DAB",46 % UNCK
same,# Damaged leaves,"Tuta absoluta; 1950 g/ha (3 L/ha), 14 DAA",72 % UNCK
same,# Damaged leaves,"Tuta absoluta; 2600 g/ha (4 L/ha), 3 DAA",58 % UNCK
same,# Damaged leaves,"Tuta absoluta; 2600 g/ha (4 L/ha), 3 DAB",47 % UNCK
same,# Damaged leaves,"Tuta absoluta; 2600 g/ha (4 L/ha), 7 DAA",74 % UNCK
same,# Damaged leaves,"Tuta absoluta; 2600 g/ha (4 L/ha), 7 DAB",42 % UNCK
same,# Damaged leaves,"Tuta absoluta; 2600 g/ha (4 L/ha), 14 DAA",78 % UNCK
same,# Damaged leaves,"Tuta absoluta; 5200 g/ha (8 L/ha), 3 DAA",59 % UNCK
same,# Damaged leaves,"Tuta absoluta; 5200 g/ha (8 L/ha), 3 DAB",42 % UNCK
same,# Damaged leaves,"Tuta absoluta; 5200 g/ha (8 L/ha), 7 DAA",75 % UNCK
same,# Damaged leaves,"Tuta absoluta; 5200 g/ha (8 L/ha), 7 DAB",49 % UNCK
same,# Damaged leaves,"Tuta absoluta; 5200 g/ha (8 L/ha), 14 DAA",75 % UNCK
same,Phytotoxicity - Necrosis/burn (PHYNEC),Pea; 7 DAA,0
same,Phytotoxicity - Necrosis/burn (PHYNEC),Pea; 14 DAA,0
